Legend:
[1] = biological target: Mushroom-derived tyrosinase; assay: Inhibitory effect of tyrosinase activity; format: biochemical; conditions: L-tyrosine substrate, 20 minutes at 37° C., absorbance at 490 nm
Procedure: In order to compare the skin brightening effects of ginsenosides isolated from the ginseng seed extract, the inhibitory effect of the tyrosinase activity was evaluated as follows. Mushroom-derived tyrosinase and tyrosine were obtained from Sigma Chemical. […] Tyrosinase activity was assessed by measuring the absorbance at 490 nm using a microplate reader (Bio-Rad 3550, Richmond, Calif., U.S.A.) after an enzyme reaction for 20 minutes at 37° C.

Mel-Ab cell line = assay: Melanin production inhibition (Dooley's method); format: cell-based, C57BL/6; conditions: Mel-Ab cells, after 5 days, absorbance at 400 nm
SH-SY5Y cells = assay: Cytotoxicity, Cell Counting Kit (CCK)-8; format: cell-based; conditions: SH-SY5Y cells, 0.1, 1, 5, 10, 20, and 50 μM; up to 50 μM
Procedure: The cell growth in the presence of novel ginsenoside GS #10, which is an example of the present disclosure, was evaluated using Cell Counting Kit (CCK)-8, in order to exclude the possibility that ginsenosides may affect skin brightening efficacy through cytotoxic activity.
Specifically, the viability of SH-SY5Y cells was assessed using CCK-8 assay according to manufacturer's instructions (Dojindo, Md., USA). CCK-8, a cell viability detection reagent, was added to the cultured SH-SY5Y cells and incubated for 2 hours in a wet atmosphere. Then, absorbance was measured at 450 nm, and the cell viability was marked as a percentage (%) of the absolute optical density of each sample relative to the untreated sample. At this time, the concentration of the novel ginsenoside GS #10, which is an example of the present disclosure, contained in the medium in which the cells were cultured was 0.1, 1, 5, 10, 20, and 50 μM, respectively.

healthy adult subjects = assay: Human repeated insult patch tests (HRIPT), skin accumulated irritation; format: in vivo; design: key to reactivity (skin response, ICDRG criteria): −: Negative (no response); ±: Suspicious or slight erythema, or the like; +: Weak reactions (without vesicles), erythema, papules; ++: Severe reactions (with vesicles), erythema, papules, vesicles; +++: Strong reaction, bulla reaction; conditions: for Average reactivity: safe when less than 3
Procedure: Human repeated insult patch tests (HRIPT) were performed to confirm whether the novel ginsenoside GS #10, which is an example of the present disclosure, has a skin accumulated irritation and to calculate a concentration range that can be used on the skin.
Specifically, 15 healthy adult subjects were randomly selected, and the test composition containing 0.5 wt %, 1 wt %, and 3 wt % of the compound (the skin composition comprising an emulsifier, a stabilizer, purified water, etc. in addition to the compound) was added dropwise by 20 μl per chamber (IQ chamber, Epitest Ltd, Finland). After 24 hours from patching the upper right part of the back of a subject, it was replaced with the new patch. In this way, the skin reactions were examined before and after each patch while performing nine patches three times a week for a total of three weeks. The skin reactions were confirmed up to 48 hours after removing the final patch, and the average reactivity was obtained.
The skin response was determined according to the criteria of the International Contact Dermatitis Research Group (ICDRG). […] This means that the novel ginsenoside GS #10, which is an example of the present disclosure, has no skin accumulated irritation and can be used safely on the skin.

Compound: CC1(C)C(=O)CC[C@@]2(C)C1[C@@H](O[C@H]1OC(CO)[C@H](O)C(O)C1O[C@H]1OC(CO)[C@H](O)C(O)C1O)C[C@]1(C)C2C[C@@H](O)C2C([C@]3(C)CC[C@H](C(C)(C)O)O3)CC[C@]21C (stereo partly drawn) [GS#10, (20S,24R)-6-O-β-D-glucopyranosyl(1→2)-β-D-glucopyranoside-dammar-3-one-20,24-epoxy-6a,12b,25-triol]
- IC50 (ppm), inhibitory effect of tyrosinase activity [1]: 15 ppm
- IC50 (ppm), concentration required to reduce melanin production in melanocytes by half (Mel-Ab cell line): 22 ppm
- cytotoxicity (cell viability) (SH-SY5Y cells): did not exhibit cytotoxicity
- Number of subjects with ±, +, or ++ reactivity (healthy adult subjects; 0.5 wt %, Eight times, 1st line (±)): 0 person
- Number of subjects with ±, +, or ++ reactivity (healthy adult subjects; 0.5 wt %, Eight times, 2nd line (+)): 0 person
- Number of subjects with ±, +, or ++ reactivity (healthy adult subjects; 0.5 wt %, Eight times, 3rd line (++)): 0 person
- Number of subjects with ±, +, or ++ reactivity (healthy adult subjects; 0.5 wt %, Five times, 1st line (±)): 0 person
- Number of subjects with ±, +, or ++ reactivity (healthy adult subjects; 0.5 wt %, Five times, 2nd line (+)): 0 person
- Number of subjects with ±, +, or ++ reactivity (healthy adult subjects; 0.5 wt %, Five times, 3rd line (++)): 0 person
- Number of subjects with ±, +, or ++ reactivity (healthy adult subjects; 0.5 wt %, Four times, 1st line (±)): 0 person
- Number of subjects with ±, +, or ++ reactivity (healthy adult subjects; 0.5 wt %, Four times, 2nd line (+)): 0 person
- Number of subjects with ±, +, or ++ reactivity (healthy adult subjects; 0.5 wt %, Four times, 3rd line (++)): 0 person
- Number of subjects with ±, +, or ++ reactivity (healthy adult subjects; 0.5 wt %, Nine times, 1st line (±)): 0 person
- Number of subjects with ±, +, or ++ reactivity (healthy adult subjects; 0.5 wt %, Nine times, 2nd line (+)): 0 person
- Number of subjects with ±, +, or ++ reactivity (healthy adult subjects; 0.5 wt %, Nine times, 3rd line (++)): 0 person
- Number of subjects with ±, +, or ++ reactivity (healthy adult subjects; 0.5 wt %, Once, 1st line (±)): 0 person
- Number of subjects with ±, +, or ++ reactivity (healthy adult subjects; 0.5 wt %, Once, 2nd line (+)): 0 person
- Number of subjects with ±, +, or ++ reactivity (healthy adult subjects; 0.5 wt %, Once, 3rd line (++)): 0 person
- Number of subjects with ±, +, or ++ reactivity (healthy adult subjects; 0.5 wt %, Seven times, 1st line (±)): 0 person
- Number of subjects with ±, +, or ++ reactivity (healthy adult subjects; 0.5 wt %, Seven times, 2nd line (+)): 0 person
- Number of subjects with ±, +, or ++ reactivity (healthy adult subjects; 0.5 wt %, Seven times, 3rd line (++)): 0 person
- Number of subjects with ±, +, or ++ reactivity (healthy adult subjects; 0.5 wt %, Six times, 1st line (±)): 0 person
- Number of subjects with ±, +, or ++ reactivity (healthy adult subjects; 0.5 wt %, Six times, 2nd line (+)): 0 person
- Number of subjects with ±, +, or ++ reactivity (healthy adult subjects; 0.5 wt %, Six times, 3rd line (++)): 0 person
- Number of subjects with ±, +, or ++ reactivity (healthy adult subjects; 0.5 wt %, Three times, 1st line (±)): 0 person
- Number of subjects with ±, +, or ++ reactivity (healthy adult subjects; 0.5 wt %, Three times, 2nd line (+)): 0 person
- Number of subjects with ±, +, or ++ reactivity (healthy adult subjects; 0.5 wt %, Three times, 3rd line (++)): 0 person
- Average reactivity (healthy adult subjects; 0.5 wt %): 0
- Number of subjects with ±, +, or ++ reactivity (healthy adult subjects; 0.5 wt %, twice, 1st line (±)): 0 person
- Number of subjects with ±, +, or ++ reactivity (healthy adult subjects; 0.5 wt %, twice, 2nd line (+)): 0 person
- Number of subjects with ±, +, or ++ reactivity (healthy adult subjects; 0.5 wt %, twice, 3rd line (++)): 0 person
- Number of subjects with ±, +, or ++ reactivity (healthy adult subjects; 1 wt %, Eight times, 1st line (±)): 0 person
- Number of subjects with ±, +, or ++ reactivity (healthy adult subjects; 1 wt %, Eight times, 2nd line (+)): 0 person
- Number of subjects with ±, +, or ++ reactivity (healthy adult subjects; 1 wt %, Eight times, 3rd line (++)): 0 person
- Number of subjects with ±, +, or ++ reactivity (healthy adult subjects; 1 wt %, Five times, 1st line (±)): 0 person
- Number of subjects with ±, +, or ++ reactivity (healthy adult subjects; 1 wt %, Five times, 2nd line (+)): 0 person
- Number of subjects with ±, +, or ++ reactivity (healthy adult subjects; 1 wt %, Five times, 3rd line (++)): 0 person
- Number of subjects with ±, +, or ++ reactivity (healthy adult subjects; 1 wt %, Four times, 1st line (±)): 0 person
- Number of subjects with ±, +, or ++ reactivity (healthy adult subjects; 1 wt %, Four times, 2nd line (+)): 0 person
- Number of subjects with ±, +, or ++ reactivity (healthy adult subjects; 1 wt %, Four times, 3rd line (++)): 0 person
- Number of subjects with ±, +, or ++ reactivity (healthy adult subjects; 1 wt %, Nine times, 1st line (±)): 0 person
- Number of subjects with ±, +, or ++ reactivity (healthy adult subjects; 1 wt %, Nine times, 2nd line (+)): 0 person
- Number of subjects with ±, +, or ++ reactivity (healthy adult subjects; 1 wt %, Nine times, 3rd line (++)): 0 person
- Number of subjects with ±, +, or ++ reactivity (healthy adult subjects; 1 wt %, Once, 1st line (±)): 0 person
- Number of subjects with ±, +, or ++ reactivity (healthy adult subjects; 1 wt %, Once, 2nd line (+)): 0 person
- Number of subjects with ±, +, or ++ reactivity (healthy adult subjects; 1 wt %, Once, 3rd line (++)): 0 person
- Number of subjects with ±, +, or ++ reactivity (healthy adult subjects; 1 wt %, Seven times, 1st line (±)): 0 person
- Number of subjects with ±, +, or ++ reactivity (healthy adult subjects; 1 wt %, Seven times, 2nd line (+)): 0 person
- Number of subjects with ±, +, or ++ reactivity (healthy adult subjects; 1 wt %, Seven times, 3rd line (++)): 0 person
- Number of subjects with ±, +, or ++ reactivity (healthy adult subjects; 1 wt %, Six times, 1st line (±)): 0 person
- Number of subjects with ±, +, or ++ reactivity (healthy adult subjects; 1 wt %, Six times, 2nd line (+)): 0 person
- Number of subjects with ±, +, or ++ reactivity (healthy adult subjects; 1 wt %, Six times, 3rd line (++)): 0 person
- Number of subjects with ±, +, or ++ reactivity (healthy adult subjects; 1 wt %, Three times, 1st line (±)): 0 person
- Number of subjects with ±, +, or ++ reactivity (healthy adult subjects; 1 wt %, Three times, 2nd line (+)): 0 person
- Number of subjects with ±, +, or ++ reactivity (healthy adult subjects; 1 wt %, Three times, 3rd line (++)): 0 person
- Average reactivity (healthy adult subjects; 1 wt %): 0
- Number of subjects with ±, +, or ++ reactivity (healthy adult subjects; 1 wt %, twice, 1st line (±)): 0 person
- Number of subjects with ±, +, or ++ reactivity (healthy adult subjects; 1 wt %, twice, 2nd line (+)): 0 person
- Number of subjects with ±, +, or ++ reactivity (healthy adult subjects; 1 wt %, twice, 3rd line (++)): 0 person
- Number of subjects with ±, +, or ++ reactivity (healthy adult subjects; 3 wt %, Eight times, 1st line (±)): 0 person
- Number of subjects with ±, +, or ++ reactivity (healthy adult subjects; 3 wt %, Eight times, 2nd line (+)): 0 person
- Number of subjects with ±, +, or ++ reactivity (healthy adult subjects; 3 wt %, Eight times, 3rd line (++)): 0 person
- Number of subjects with ±, +, or ++ reactivity (healthy adult subjects; 3 wt %, Five times, 1st line (±)): 0 person
- Number of subjects with ±, +, or ++ reactivity (healthy adult subjects; 3 wt %, Five times, 2nd line (+)): 0 person
- Number of subjects with ±, +, or ++ reactivity (healthy adult subjects; 3 wt %, Five times, 3rd line (++)): 0 person
- Number of subjects with ±, +, or ++ reactivity (healthy adult subjects; 3 wt %, Four times, 1st line (±)): 0 person
- Number of subjects with ±, +, or ++ reactivity (healthy adult subjects; 3 wt %, Four times, 2nd line (+)): 0 person
- Number of subjects with ±, +, or ++ reactivity (healthy adult subjects; 3 wt %, Four times, 3rd line (++)): 0 person
- Number of subjects with ±, +, or ++ reactivity (healthy adult subjects; 3 wt %, Nine times, 1st line (±)): 0 person
- Number of subjects with ±, +, or ++ reactivity (healthy adult subjects; 3 wt %, Nine times, 2nd line (+)): 0 person
- Number of subjects with ±, +, or ++ reactivity (healthy adult subjects; 3 wt %, Nine times, 3rd line (++)): 0 person
- Number of subjects with ±, +, or ++ reactivity (healthy adult subjects; 3 wt %, Once, 1st line (±)): 0 person
- Number of subjects with ±, +, or ++ reactivity (healthy adult subjects; 3 wt %, Once, 2nd line (+)): 0 person
- Number of subjects with ±, +, or ++ reactivity (healthy adult subjects; 3 wt %, Once, 3rd line (++)): 0 person
- Number of subjects with ±, +, or ++ reactivity (healthy adult subjects; 3 wt %, Seven times, 1st line (±)): 0 person
- Number of subjects with ±, +, or ++ reactivity (healthy adult subjects; 3 wt %, Seven times, 2nd line (+)): 0 person
- Number of subjects with ±, +, or ++ reactivity (healthy adult subjects; 3 wt %, Seven times, 3rd line (++)): 0 person
- Number of subjects with ±, +, or ++ reactivity (healthy adult subjects; 3 wt %, Six times, 1st line (±)): 0 person
- Number of subjects with ±, +, or ++ reactivity (healthy adult subjects; 3 wt %, Six times, 2nd line (+)): 0 person
- Number of subjects with ±, +, or ++ reactivity (healthy adult subjects; 3 wt %, Six times, 3rd line (++)): 0 person
- Number of subjects with ±, +, or ++ reactivity (healthy adult subjects; 3 wt %, Three times, 1st line (±)): 0 person
- Number of subjects with ±, +, or ++ reactivity (healthy adult subjects; 3 wt %, Three times, 2nd line (+)): 0 person
- Number of subjects with ±, +, or ++ reactivity (healthy adult subjects; 3 wt %, Three times, 3rd line (++)): 0 person
- Average reactivity (healthy adult subjects; 3 wt %): 0
- Number of subjects with ±, +, or ++ reactivity (healthy adult subjects; 3 wt %, twice, 1st line (±)): 0 person
- Number of subjects with ±, +, or ++ reactivity (healthy adult subjects; 3 wt %, twice, 2nd line (+)): 0 person
- Number of subjects with ±, +, or ++ reactivity (healthy adult subjects; 3 wt %, twice, 3rd line (++)): 0 person
- reactivity (skin response, ICDRG criteria) (healthy adult subjects; all content range (0.5 wt %, 1 wt %, 3 wt %), nine patches in three weeks): −

Source: US10722442B2, “Skin brightening composition comprising novel ginsenoside” (AMOREPACIFIC CORPORATION, priority 2018, dated 2020)
